Entries after “also recorded” stand apart in the source; their conditions may differ.

The values below come from patent publication US5905089A, “Use of sesquiterpene lactones for treatment of severe inflammatory disorders” (Board of Supervisors of Louisiana State University and …, priority 1998, dated 1999).

The subject of assay [1] is COX-2. Kind of assay: COX activity of de novo synthesized COX-2 (PGE2) in LPS-stimulated, aspirin-pretreated alveolar macrophages. The format is cell-based, Rat (Sprague-Dawley). The settings on record: LPS 10 μg/ml, 16h; PGE2 from exogenous arachidonic acid; FIG. 2; read-out: IC50, inhibition of the expression of COX activity. The protocol:
(§1) Rat (Sprague-Dawley) alveolar macrophages were collected by broncho-alveolar lavage as described by Lee et al., J. Biol. Chem., vol. 267, pp. 25934-25938 (1992). The murine macrophage cell line RAW 264.7 (ATCC no. TIB-71) was cultured in Dubecco's modified Eagle's medium (DMEM) containing 10% heat-inactivated fetal bovine serum (FBS, Intergen). For the cyclooxygenase activity assay, cells were seeded in 24 well plates, and after near-confluency, cells were treated with aspirin (250 μM) for 2.5h to inactivate endogenous cyclooxygenase. […] COX activity was determined by measuring prostaglandin E2 concentrations in cells incubated with arachidonic acid (30 μM) for 10 minutes as described in Lee et al. (1992).
Recovered COX activity in cells pretreated with aspirin reflected de novo synthesized COX-2. Alveolar macrophages pretreated with aspirin were incubated with LPS (10 μg/ml) and various concentrations of parthenolide for 16h. The activity of de novo synthesized COX-2 was determined by measuring the levels of PGE2 produced from exogenous arachidonic acid. Activity of TNFα was determined by bioassay using L929 cells as described by Aggarwal et al., J. Biol. Chem., vol. 260, pp. 2345-2354 (1985). […] Values in FIG. 2 are the means of triplicate samples for TNFα and duplicate samples for PGE2.

The subject of a further assay is MAPKs. Kind of assay: Tyrosine phosphorylation / activation of MAPKs in RAW 264.7 cells. The format is cell-based, murine. The following applies: 3h pretreatment (herbimycin A 0.5 μg/ml), LPS 1 μg/ml 30 min. The procedure: as §1
(§2) This detection technique was carried out essentially as described in Chanmugan et al. (1995) using 4G10 monoclonal antiphosphotyrosine antibody (UBI) and the ECL detection system (Amersham).
(§3) Parthenolide suppressed LPS-stimulated tyrosine phosphorylation of various proteins in RAW 264.7 cells as assessed by antiphosphotyrosine immunoblot, depicted in FIG. 5A. This inhibition was correlated with the suppressed expression of COX-2 and IL-1α. RAW 264.7 cells were pretreated with parthenolide in various concentrations or with herbimycin A (0.5 μg/ml) for 3h, and then stimulated with LPS (1 μg/ml) in the presence of the inhibitors for 30 min. […] Therefore, the extent of tyrosine phosphorylation of JNK-1 was assessed by the electrophoretic mobility shift of phosphorylated JNK-1 as shown in FIG. 5B. Parthenolide inhibited tyrosine phosphorylation of JNK-1. Another protein tyrosine kinase inhibitor, herbimycin A ([…]), inhibited tyrosine phosphorylation of the MAPK subfamily.
The mechanism by which parthenolide inhibits protein tyrosine phosphorylation is not currently known. It has been speculated that the tyrosine kinase inhibitor herbimycin A inactivates p60^v-src kinase by irreversibly binding to the sulphydryl (SH) groups of p60^v-src kinase. Y. Uehara et al., Biochem. Biophys. Res. Commun., vol. 163, pp. 803-809 (1989). The inactivation by herbimycin may occur through conjugation between highly polarized double bonds in the benzoquinone moiety of herbimycin A and the SH group of sulphydryl compounds. Without wishing to be bound by this theory, the α-methylenebutyrolactone in parthenolide may interact with biological nucleophiles such as sulphydryl groups. Indeed, pretreating cells with sulphydryl compounds abrogated the inhibitory effect of parthenolide on LPS-induced activation of MAPKs as shown in FIG. 6A. In FIG. 6, RAW 264.7 cells were pretreated with parthenolide (1 μg/ml) in the presence of DTT (dithiothreitol, 100 μM), 2-ME (2-mercaptoethanol, 50 μM), or Cys (L-cysteine, 150 μM), and were then stimulated with LPS (1 μg/ml). Cells were incubated for 30 min for antiphosphotyrosine immunoblot analysis (FIG. 6A) and 8h for COX-2 and IL-1α Western blot analyses (FIG. 6B). […] Whether parthenolide inhibits protein tyrosine phosphorylation by directly inhibiting PTKs or by inhibiting other target protein(s) that affect the activity of PTKs is not currently known.

Another assay concerns P38. Kind of assay: Tyrosine phosphorylation of P38 in RAW 264.7 cells (antiphosphotyrosine immunoblot). The class given is cell-based, murine. The settings on record: 3h pretreatment, LPS 1 μg/ml 30 min; FIG. 5A. The protocol: as §1, §2
(§4) Parthenolide suppressed LPS-stimulated tyrosine phosphorylation of various proteins in RAW 264.7 cells as assessed by antiphosphotyrosine immunoblot, depicted in FIG. 5A. This inhibition was correlated with the suppressed expression of COX-2 and IL-1α. […] Therefore, the extent of tyrosine phosphorylation of JNK-1 was assessed by the electrophoretic mobility shift of phosphorylated JNK-1 as shown in FIG. 5B. […]

The test system of assay [2] is c-Jun N-terminal kinase-1 (JNK-1). Kind of assay: Tyrosine phosphorylation of JNK-1 in RAW 264.7 cells (electrophoretic mobility shift immunoblot). The class given is cell-based, murine. The settings on record: 3h pretreatment, LPS 1 μg/ml 30 min; FIG. 5B. The protocol: as §1
(§5) The protein levels of COX-2 and GAPDH were assessed by Western blot analysis using polyclonal antibodies as described in Lee et al. (1992). Polyclonal antibodies for IL-1α and JNK-1 were purchased from Genzyme and Santa Cruz Biotech, respectively.
as §4
In general terms: A western blot detects proteins with antibodies after separation by electrophoresis.

In a further assay the test system is COX-2 mRNA. Kind of assay: Steady state levels of COX-2 mRNA in LPS-stimulated alveolar macrophages (RNase protection assay). The class given is cell-based, Rat (Sprague-Dawley). The settings on record: 2h, FIG. 3B. The procedure:
as §1
(§6) Total cellular RNA was isolated by TRIzoL reagent (Gibco, BRL). The RNase protection assay was performed as described in Chanmugan et al. (1995).
(§7) In FIG. 3B, alveolar macrophages were incubated with LPS in the presence of various concentrations of parthenolide for 2h. Steady state levels of mRNA were determined by RNase protection assay. In FIG. 4, alveolar macrophages were incubated with LPS in presence of 1 μg/ml of parthenolide for specified time periods. The concentrations of mRNA were determined by RNase protection assay.

The next assay has as its system IL-1β mRNA. Kind of assay: Steady state levels of IL-1β mRNA in LPS-stimulated alveolar macrophages (RNase protection assay). The class given is cell-based, Rat (Sprague-Dawley). The following applies: FIG. 3B (2h) and FIG. 4 (parthenolide 1 μg/ml, time course). The protocol: as §1, §6, §7
Assay [3] relates to COX-2. Kind of assay: Inhibition of the expression of COX-2 in LPS-stimulated macrophages (Table 1). The class given is cell-based. The procedure: Rat (Sprague-Dawley) alveolar macrophages were collected by broncho-alveolar lavage as described by Lee et al., J. Biol. Chem., vol.
Alveolar macrophages pretreated with aspirin were incubated with LPS (10 μg/ml) and various concentrations of parthenolide for 16h. The activity of de novo synthesized COX-2 was determined by measuring the levels of PGE2 produced from exogenous arachidonic acid. Activity of TNFα was determined by bioassay using L929 cells as described by Aggarwal et al., J. Biol. Chem., vol. […] Values in FIG. 2 are the means of triplicate samples for TNFα and duplicate samples for PGE2.

For another assay, the system named is ERK-1. Kind of assay: Tyrosine phosphorylation of ERK-1 in RAW 264.7 cells (antiphosphotyrosine immunoblot). The format is cell-based, murine. The settings on record: 3h pretreatment, LPS 1 μg/ml 30 min; FIG. 5A. The procedure: as §1, §2, §4
A further assay relates to IL-1α. Kind of assay: IL-1α expression in LPS-stimulated RAW 264.7 cells (Western blot). The settings on record: LPS 1 μg/ml; FIG. 5D. The class given is cell-based, murine. The protocol: as §1, §5, §3
The mechanism by which parthenolide inhibits protein tyrosine phosphorylation is not currently known. It has been speculated that the tyrosine kinase inhibitor herbimycin A inactivates p60^v-src kinase by irreversibly binding to the sulphydryl (SH) groups of p60^v-src kinase. Y. Uehara et al., Biochem. Biophys. Res. Commun., vol. 163, pp. 803-809 (1989). The inactivation by herbimycin may occur through conjugation between highly polarized double bonds in the benzoquinone moiety of herbimycin A and the SH group of sulphydryl compounds. Without wishing to be bound by this theory, the α-methylenebutyrolactone in parthenolide may interact with biological nucleophiles such as sulphydryl groups. Indeed, pretreating cells with sulphydryl compounds abrogated the inhibitory effect of parthenolide on LPS-induced activation of MAPKs as shown in FIG. 6A. […]

Assay [4] has as its system Nuclear Factor-kB (NF-kB). Kind of assay: NF-kB activated by LPS in RAW 264.7 cells (degradation of IKBα). The format is cell-based, murine. The text has this: Parthenolide inhibits Nuclear Factor--kB (NF-kB) transcription factor that has been activated by LPS in the murine macrophage cell line (RAW 264.7) as assessed by the degradation of the protein, IKBα. Activated NF-kB is known to induce the expression of many early response genes including inducible nitric oxide synthetase, cyclooxygenase, and chemokines that are implicated in acute inflammatory responses.

With `C=C1C(=O)O[C@H]2[C@H]1CC/C(C)=C/CC[C@@]1(C)O[C@@H]21` [Compound 1, Parthenolide], the IC50 (in general, the concentration that inhibits the measured activity by half) in the assay on COX-2 [1] is about 0.8 µM. Besides, the “tyrosine phosphorylation of the MAPK subfamily” value in the assay with MAPKs is “most dramatic inhibition”. In addition, the “tyrosine phosphorylation of P38” value with P38 is reported as “inhibited by parthenolide in a dose-dependent manner”. Besides, in [2], the “tyrosine phosphorylation of JNK-1” value is listed as “inhibited”. Moreover, the “steady state levels of COX-2 mRNA” value in the assay on COX-2 mRNA was “dose-dependent inhibition; also recorded: suppression”. For the same compound, in the assay on IL-1β mRNA, the “steady state levels of mRNA for IL-1β” value is on record as “inhibited”. The compound further came in with an IC50, inhibiting the expression of COX-2 in the assay with COX-2 [3] (IC50 determined at multiple dose levels) of 0.2 µg/mL. In the assay with COX-2 [3] (comparison among tested compounds), the “inhibitory activity (COX-2 expression), in words” value is reported as “highest inhibitory activity”. Also, the “tyrosine phosphorylation of ERK-1” value in the assay on ERK-1 is “inhibited by parthenolide in a dose-dependent manner”. Also, the “expression of IL-1α in RAW 264.7 cells” value with IL-1α is “suppressed”. Further, the “inhibition of NF-kB transcription factor activated by LPS” value in [4] is recorded as “inhibits”.
